{"source": "patent US12357711B2", "about": "“PSMA binding dual mode radiotracer and therapeutic” (Technische Universität München, priority 2019, dated 2025)", "tested_on": "SCID mice", "experiment": "Preclinical dosimetry from biodistribution in mice, extrapolated to 70-kg Standard Adult (OLINDA/EXM 1.0)", "assay_type": "in vivo", "conditions": "[…] bladder voiding interval", "description": "3-5 mice were injected per timepoint with a mean 25.6±3.6 MBq of 18F-rhPSMA-7 and 28.5±4.8 MBq of 18F-rhPSMA-7.3, respectively. Mice, severe combined immunodeficiency (SCID) were used for the experiments.\nMice were sacrificed at the following timepoints: • ^18F-rhPSMA-7: 10, 20, 40, 60, 120 and 180 minutes after administration. • ^18F-rhPSMA-7.3: 10, 60, 120, 180 and 300 minutes after administration.\nUrine, blood, heart, lung, spleen, pancreas, liver, stomach (emptied), small intestine (emptied), large intestine (emptied), kidneys, bladder, testis, fat, muscle (partial, femoral), femur, tail and brain. Urine was collected with a pipette in the CO2 gas chamber. In case of missing urination in the chamber the bladder was aspirated with an insulin syringe. Blood was withdrawn instantly after sacrifice with an insulin syringe from the heart. All other tissues and organs were dissected and transferred directly in plastic containers.\nThe counting rates of measurement samples were automatically corrected for decay. The radioactivity distribution ratios (unit: percentage of the injected dose (% ID) in the measurement samples were determined using the equation below. The sum of the counting rates from all measurement samples obtained from one mouse was designated as the counting rate for administrated radioactivity.\nThe radioactivity distribution ratio per unit weight of the measurement sample (unit: % ID/g) excluding urine and feces samples was determined by using the equation below. The weight of the measurement sample was determined by subtraction of the empty measurement container from the container including the sample.\nFor consistency of statistical calculations for each radiotracer the same number of time-points for ^18F-rhPSMA-7 and ^18F-rhPSMA-7.3 was used. Therefore, for ^18F-rhPSMA-7 the 10 min and 20 min time points were combined creating a 15 min endpoint.\nThe time-integral of activity for the accumulation in the significant source organs (AUCs) were generated both with numerical integration and physical decay according to J Juan et al., Journal of Pharmaceutical Sciences, 1993, 82:762-763.\nIn brief, to calculate a human dosimetry from the biodistribution in the mice, an extrapolation was necessary to account for the differences between the animals and humans. Normal-organ radiation doses were estimated for the 70-kg Standard Adult anatomic model using time-depending organ activity concentrations (in percent of the injected dose per gram, % ID/g) and total-body activities measured in the biodistribution studies in mice.\nTissue activity concentrations in mice were converted to tissue fractional activities in the 70-kg Standard Adult using the relative fractional organ masses in the Standard Adult and the “standard” 25-gramm mouse. Time-dependent total-body activity was fit to an exponential function and the difference between the injected activity and the total-body activity was assumed to be excreted to the urine because activity concentrations in the liver and GI tracer were low at all time points studied.\nOrgan residence time was calculated by numerical integration using the trapezoidal rule and the rest-of-body ^18F residence times was calculated as the difference between the total-body residence time and the sum of the organ and urine residence times. The bladder contents residence time was estimated using the dynamic voiding model in the OLINDA/EXM 1.0 dosimetry software. Finally, the Standard Adult mean organ dose equivalents (in mSv/MBq) and effective dose (also in mSv/MBq) were then calculated using OLIN DA/EXM 1.0.\nFinal calculation of radiation absorbed dose and dosimetry from biodistribution in mice: The tissues or organs in which a significant accumulation of radioactivity occurs (i.e., source organ) were kidney, spleen, lung, liver and heart. With respect to activity accumulation and clearance, a rapid clearance from blood and clearance to urine but relatively slow build-up in kidney was found.", "data": [{"substance": "[^19F][^natGa]D/L-Dap-R/S-DOTAGA-rhPSMA7 [rhPSMA7-rac]", "values": [{"measurement": "Adrenals ED Cont.", "result": "3.90E−05", "unit": "mSv/MBq"}, {"measurement": "Adrenals EDE Cont.", "result": "0.00E000", "unit": "mSv/MBq"}, {"measurement": "Adrenals dose Alpha", "result": "0.00E000", "unit": "mSv/MBq"}, {"measurement": "Adrenals dose Beta", "result": "1.95E−03", "unit": "mSv/MBq"}, {"measurement": "Adrenals dose Photon", "result": "5.85E−03", "unit": "mSv/MBq"}, {"measurement": "Adrenals dose Total", "result": "7.80E−03", "unit": "mSv/MBq"}, {"measurement": "Brain ED Cont.", "result": "2.24E−05", "unit": "mSv/MBq"}, {"measurement": "Brain EDE Cont.", "result": "0.00E000", "unit": "mSv/MBq"}, {"measurement": "Brain dose Alpha", "result": "0.00E000", "unit": "mSv/MBq"}, {"measurement": "Brain dose Beta", "result": "1.95E−03", "unit": "mSv/MBq"}, {"measurement": "Brain dose Photon", "result": "2.54E−03", "unit": "mSv/MBq"}, {"measurement": "Brain dose Total", "result": "4.49E−03", "unit": "mSv/MBq"}, {"measurement": "Breasts ED Cont.", "result": "2.12E−04", "unit": "mSv/MBq"}, {"measurement": "Breasts EDE Cont.", "result": "6.36E−04", "unit": "mSv/MBq"}, {"measurement": "Breasts dose Alpha", "result": "0.00E000", "unit": "mSv/MBq"}, {"measurement": "Breasts dose Beta", "result": "1.95E−03", "unit": "mSv/MBq"}, {"measurement": "Breasts dose Photon", "result": "2.29E−03", "unit": "mSv/MBq"}, {"measurement": "Breasts dose Total", "result": "4.24E−03", "unit": "mSv/MBq"}, {"measurement": "Gallbladder Wall ED Cont.", "result": "0.00E000", "unit": "mSv/MBq"}, {"measurement": "Gallbladder Wall EDE Cont.", "result": "0.00E000", "unit": "mSv/MBq"}, {"measurement": "Gallbladder Wall dose Alpha", "result": "0.00E000", "unit": "mSv/MBq"}, {"measurement": "Gallbladder Wall dose Beta", "result": "1.95E−03", "unit": "mSv/MBq"}, {"measurement": "Gallbladder Wall dose Photon", "result": "5.54E−03", "unit": "mSv/MBq"}, {"measurement": "Gallbladder Wall dose Total", "result": "7.49E−03", "unit": "mSv/MBq"}, {"measurement": "Heart Wall ED Cont.", "result": "0.00E000", "unit": "mSv/MBq"}, {"measurement": "Heart Wall EDE Cont.", "result": "0.00E000", "unit": "mSv/MBq"}, {"measurement": "Heart Wall dose Alpha", "result": "0.00E000", "unit": "mSv/MBq"}, {"measurement": "Heart Wall dose Beta", "result": "8.82E−04", "unit": "mSv/MBq"}, {"measurement": "Heart Wall dose Photon", "result": "3.54E−03", "unit": "mSv/MBq"}, {"measurement": "Heart Wall dose Total", "result": "4.42E−03", "unit": "mSv/MBq"}, {"measurement": "Kidneys ED Cont.", "result": "3.25E−04", "unit": "mSv/MBq"}, {"measurement": "Kidneys EDE Cont.", "result": "3.91E−03", "unit": "mSv/MBq"}, {"measurement": "Kidneys dose Alpha", "result": "0.00E000", "unit": "mSv/MBq"}, {"measurement": "Kidneys dose Beta", "result": "4.70E−02", "unit": "mSv/MBq"}, {"measurement": "Kidneys dose Photon", "result": "1.80E−02", "unit": "mSv/MBq"}, {"measurement": "Kidneys dose Total", "result": "6.51E−02", "unit": "mSv/MBq"}, {"measurement": "LLI Wall ED Cont.", "result": "1.93E−03", "unit": "mSv/MBq"}, {"measurement": "LLI Wall EDE Cont.", "result": "9.66E−04", "unit": "mSv/MBq"}, {"measurement": "LLI Wall dose Alpha", "result": "0.00E000", "unit": "mSv/MBq"}, {"measurement": "LLI Wall dose Beta", "result": "1.95E−03", "unit": "mSv/MBq"}, {"measurement": "LLI Wall dose Photon", "result": "1.41E−02", "unit": "mSv/MBq"}, {"measurement": "LLI Wall dose Total", "result": "1.61E−02", "unit": "mSv/MBq"}, {"measurement": "Liver ED Cont.", "result": "2.13E−04", "unit": "mSv/MBq"}, {"measurement": "Liver EDE Cont.", "result": "0.00E000", "unit": "mSv/MBq"}, {"measurement": "Liver dose Alpha", "result": "0.00E000", "unit": "mSv/MBq"}, {"measurement": "Liver dose Beta", "result": "6.35E−04", "unit": "mSv/MBq"}, {"measurement": "Liver dose Photon", "result": "3.63E−03", "unit": "mSv/MBq"}, {"measurement": "Liver dose Total", "result": "4.27E−03", "unit": "mSv/MBq"}, {"measurement": "Lungs ED Cont.", "result": "5.16E−04", "unit": "mSv/MBq"}, {"measurement": "Lungs EDE Cont.", "result": "5.16E−04", "unit": "mSv/MBq"}, {"measurement": "Lungs dose Alpha", "result": "0.00E000", "unit": "mSv/MBq"}, {"measurement": "Lungs dose Beta", "result": "1.25E−03", "unit": "mSv/MBq"}, {"measurement": "Lungs dose Photon", "result": "3.04E−03", "unit": "mSv/MBq"}, {"measurement": "Lungs dose Total", "result": "4.30E−03", "unit": "mSv/MBq"}, {"measurement": "Muscle ED Cont.", "result": "3.84E−05", "unit": "mSv/MBq"}, {"measurement": "Muscle EDE Cont.", "result": "0.00E000", "unit": "mSv/MBq"}, {"measurement": "Muscle dose Alpha", "result": "0.00E000", "unit": "mSv/MBq"}, {"measurement": "Muscle dose Beta", "result": "1.95E−03", "unit": "mSv/MBq"}, {"measurement": "Muscle dose Photon", "result": "5.73E−03", "unit": "mSv/MBq"}, {"measurement": "Muscle dose Total", "result": "7.68E−03", "unit": "mSv/MBq"}, {"measurement": "Osteogenic Cells ED Cont.", "result": "8.93E−05", "unit": "mSv/MBq"}, {"measurement": "Osteogenic Cells EDE Cont.", "result": "2.68E−04", "unit": "mSv/MBq"}, {"measurement": "Osteogenic Cells dose Alpha", "result": "0.00E000", "unit": "mSv/MBq"}, {"measurement": "Osteogenic Cells dose Beta", "result": "4.18E−03", "unit": "mSv/MBq"}, {"measurement": "Osteogenic Cells dose Photon", "result": "4.75E−03", "unit": "mSv/MBq"}, {"measurement": "Osteogenic Cells dose Total", "result": "8.93E−03", "unit": "mSv/MBq"}, {"measurement": "Ovaries ED Cont.", "result": "3.09E−03", "unit": "mSv/MBq"}, {"measurement": "Ovaries EDE Cont.", "result": "3.87E−03", "unit": "mSv/MBq"}, {"measurement": "Ovaries dose Alpha", "result": "0.00E000", "unit": "mSv/MBq"}, {"measurement": "Ovaries dose Beta", "result": "1.95E−03", "unit": "mSv/MBq"}, {"measurement": "Ovaries dose Photon", "result": "1.35E−02", "unit": "mSv/MBq"}, {"measurement": "Ovaries dose Total", "result": "1.55E−02", "unit": "mSv/MBq"}, {"measurement": "Pancreas ED Cont.", "result": "4.04E−05", "unit": "mSv/MBq"}, {"measurement": "Pancreas EDE Cont.", "result": "0.00E000", "unit": "mSv/MBq"}, {"measurement": "Pancreas dose Alpha", "result": "0.00E000", "unit": "mSv/MBq"}]}]}
